In ChEMBL document CHEMBL1201862, “PubChem BioAssay data set” (2004):
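The compound was tested at five concentrations on cells cultured in 96-well plates, with a 48-hour exposure period. GI50 marks 50% less growth.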 Calls of active or inactive are those of the source. Rule as the data show it: active = GI50 up to about 1.1 µM and inactive = higher.

Legend:
Experiment in all cases: NCI-60 cell line screen, 48 h
SNB-75 = system: SNB-75
HOP-92 = system: HOP-92
SF-295 = system: SF-295
TK-10 = system: TK-10
ACHN = system: ACHN
HL-60 = system: HL-60
M14 = system: M14
IGROV-1 = system: IGROV-1
EKVX = system: EKVX
NCI-H522 = system: NCI-H522
SN12C = system: SN12C
K562 = system: K562
HT-29 = system: HT-29
Malme-3M = system: Malme-3M
SF-268 = system: SF-268
OVCAR-3 = system: OVCAR-3

Measured: GI50

COC(=O)/C(=C/c1ccc(OC)cc1)C(C(=O)O)=C1CCCCC1
inactive: SNB-75 > 100 µM | HOP-92 > 100 µM | SF-295 > 100 µM | TK-10 > 100 µM | ACHN > 100 µM | HL-60 > 100 µM | M14 > 100 µM | IGROV-1 > 100 µM | EKVX > 100 µM | NCI-H522 > 100 µM | SN12C > 100 µM | K562 > 100 µM | HT-29 > 100 µM

CS(=O)(=O)c1ccc(-c2cc(-c3ccc(S(C)(=O)=O)cc3)[n+](-c3cc(-c4ccccc4)c([O-])c(-c4ccccc4)c3)c(-c3ccc(S(C)(=O)=O)cc3)c2)cc1
inactive: SF-295 > 100 µM | TK-10 > 100 µM | Malme-3M > 100 µM | ACHN > 100 µM | M14 > 100 µM | SF-268 > 100 µM | OVCAR-3 > 100 µM | IGROV-1 > 100 µM | EKVX > 100 µM | NCI-H522 > 100 µM | SN12C > 100 µM | K562 > 100 µM | HT-29 > 100 µM

CC(=O)OC(C)(C)C1CCC(C)(C(O)COc2ccc(CCNC(=O)c3ccccc3)cc2)O1 (stereo unspecified)
inactive: SNB-75 91.6 µM | HOP-92 > 100 µM | SF-295 37.1 µM | TK-10 63.8 µM | Malme-3M 63.5 µM | ACHN 54.1 µM | HL-60 15.5 µM | M14 28.6 µM | SF-268 > 100 µM | OVCAR-3 27.6 µM | IGROV-1 > 100 µM | NCI-H522 51.2 µM | SN12C > 100 µM | HT-29 > 100 µM

Cc1ccc(NC(=O)/C(=N/NC(=O)C[N+](C)(C)C)c2nc3ccccc3nc2O)cc1
inactive: SNB-75 > 100 µM | HOP-92 > 100 µM | SF-295 > 100 µM | TK-10 > 100 µM | Malme-3M > 100 µM | ACHN > 100 µM | M14 > 100 µM | SF-268 > 100 µM | OVCAR-3 > 100 µM | IGROV-1 > 100 µM | EKVX > 100 µM | SN12C > 100 µM | HT-29 91.4 µM

N#Cc1cc([N+](=O)[O-])ccc1NC(=O)/C(=N/N)C(C(=O)c1ccc(Cl)c(Cl)c1)C1OC(=O)c2ccccc21 (stereo unspecified)
inactive: HOP-92 8.81 µM | SF-295 26.4 µM | Malme-3M > 100 µM | ACHN 36.6 µM | SF-268 59.8 µM | OVCAR-3 90.8 µM | IGROV-1 > 100 µM | EKVX 45 µM | NCI-H522 26.1 µM | SN12C 90.8 µM | K562 24.3 µM | HT-29 81.3 µM

COc1ccc(OCC(=O)O)c2c1CCC(C)C2=O (stereo unspecified)
inactive: SF-295 > 100 µM | TK-10 > 100 µM | Malme-3M > 100 µM | ACHN > 100 µM | HL-60 > 100 µM | M14 > 100 µM | SF-268 > 100 µM | OVCAR-3 > 100 µM | IGROV-1 > 100 µM | EKVX > 100 µM | NCI-H522 > 100 µM | SN12C > 100 µM | K562 > 100 µM | HT-29 > 100 µM

Cc1cc(N)c(C)c2c1[nH]c1ccc(O)cc12
inactive: SF-295 > 100 µM | TK-10 66.8 µM | Malme-3M > 100 µM | ACHN > 100 µM | HL-60 79.3 µM | M14 > 100 µM | SF-268 > 100 µM | OVCAR-3 50.6 µM | EKVX > 100 µM | NCI-H522 17 µM | SN12C > 100 µM | K562 35 µM | HT-29 > 100 µM

O=c1ccccc2cccc(O)c12
inactive: SNB-75 > 100 µM | HOP-92 84.1 µM | SF-295 > 100 µM | TK-10 > 100 µM | ACHN > 100 µM | HL-60 > 100 µM | M14 > 100 µM | OVCAR-3 > 100 µM | IGROV-1 > 100 µM | EKVX 94.2 µM | SN12C > 100 µM | K562 > 100 µM | HT-29 > 100 µM

COC(=O)[C@]12CSCN1C(=O)C(C(C)=O)=NN2C(=O)[C@](OC)(c1ccccc1)C(F)(F)F
inactive: SNB-75 8.17 µM | SF-295 > 100 µM | TK-10 > 100 µM | Malme-3M > 100 µM | ACHN > 100 µM | HL-60 > 10 µM | M14 > 100 µM | SF-268 > 100 µM | OVCAR-3 > 100 µM | IGROV-1 > 100 µM | EKVX > 100 µM | NCI-H522 88.7 µM | SN12C > 100 µM | K562 > 100 µM | HT-29 > 100 µM

CC[n+]1c(/C=C/c2cc(C(=O)OC)n3c2sc2ccccc23)sc2ccccc21
inactive: SNB-75 15.7 µM | HOP-92 15.5 µM | Malme-3M 16.7 µM | ACHN 19.1 µM | HL-60 13.9 µM | M14 18.8 µM | SF-268 21.5 µM | OVCAR-3 20.3 µM | IGROV-1 16.9 µM | EKVX 20.7 µM | NCI-H522 15.6 µM | SN12C 23.1 µM | HT-29 16.6 µM

Brc1ccc(N2C[N+](c3ccc(Br)cc3)=NC(c3ccccc3)=N2)cc1.[O-][Cl+3]([O-])([O-])[O-]
inactive: SNB-75 > 100 µM | HOP-92 77.1 µM | SF-295 29.4 µM | TK-10 > 100 µM | Malme-3M > 100 µM | ACHN 50.2 µM | HL-60 30.3 µM | M14 58.3 µM | SF-268 99.3 µM | IGROV-1 > 100 µM | EKVX 33.9 µM | NCI-H522 36 µM | SN12C > 100 µM | K562 31.3 µM | HT-29 36.7 µM

COc1cc(C2C(Cl)C(=O)N2NC(=O)c2ccc(N)cc2)ccc1O (stereo unspecified)
inactive: SNB-75 75.5 µM | HOP-92 25.5 µM | SF-295 67.8 µM | TK-10 > 100 µM | Malme-3M 16.5 µM | ACHN > 100 µM | HL-60 27.9 µM | M14 51.8 µM | OVCAR-3 16.6 µM | IGROV-1 56.8 µM | EKVX 92 µM | NCI-H522 19.8 µM | SN12C 32 µM | K562 31.3 µM | HT-29 23.4 µM

CCOC(=O)C(=O)Nc1c(N(CC)CC)n2ccccc2nc1=O
inactive: SNB-75 > 100 µM | HOP-92 > 100 µM | Malme-3M > 100 µM | ACHN > 100 µM | M14 > 100 µM | SF-268 > 100 µM | OVCAR-3 > 100 µM | IGROV-1 > 100 µM | EKVX > 100 µM | NCI-H522 > 100 µM | SN12C > 100 µM | K562 > 100 µM | HT-29 > 100 µM

CN(C)c1ccc(/C=N/C23CC4CC(CC(C4)C2)C3)cc1
inactive: SNB-75 > 10 µM | SF-295 > 100 µM | TK-10 > 100 µM | Malme-3M > 100 µM | ACHN > 100 µM | HL-60 > 100 µM | M14 > 100 µM | SF-268 > 100 µM | OVCAR-3 > 100 µM | IGROV-1 > 100 µM | EKVX > 100 µM | NCI-H522 > 100 µM | SN12C > 100 µM | K562 > 100 µM | HT-29 > 100 µM
